18 compounds from patent publication US5952504A, “4-amino-3-acylnaphthyridine derivatives” (Yungjin Pharmaceutical Company, Ltd., priority 1995, dated 1999) can be followed below.

One may read the IC50 as the point on the concentration scale where inhibition reaches its midpoint. Broadly, the ED50 is the dose that gives a 50% effect, or the effect in half of the subjects. What is called LD50 is the dose at which mortality reaches 50%. Read a low LD50 as a more toxic substance.

Like-named read-outs stand apart in the source and are kept apart here.

For series [1], the target named is T1, H^+ /K^+ ATPase (Oryctolagus cuniculus, UniProt P27112).
T1 construct: from tissue; host or cells: rabbit gastric mucosa, membrane vesicles (differential and Ficoll density gradient centrifugation)
T1 sequence (P27112 2-1035 limits assumed): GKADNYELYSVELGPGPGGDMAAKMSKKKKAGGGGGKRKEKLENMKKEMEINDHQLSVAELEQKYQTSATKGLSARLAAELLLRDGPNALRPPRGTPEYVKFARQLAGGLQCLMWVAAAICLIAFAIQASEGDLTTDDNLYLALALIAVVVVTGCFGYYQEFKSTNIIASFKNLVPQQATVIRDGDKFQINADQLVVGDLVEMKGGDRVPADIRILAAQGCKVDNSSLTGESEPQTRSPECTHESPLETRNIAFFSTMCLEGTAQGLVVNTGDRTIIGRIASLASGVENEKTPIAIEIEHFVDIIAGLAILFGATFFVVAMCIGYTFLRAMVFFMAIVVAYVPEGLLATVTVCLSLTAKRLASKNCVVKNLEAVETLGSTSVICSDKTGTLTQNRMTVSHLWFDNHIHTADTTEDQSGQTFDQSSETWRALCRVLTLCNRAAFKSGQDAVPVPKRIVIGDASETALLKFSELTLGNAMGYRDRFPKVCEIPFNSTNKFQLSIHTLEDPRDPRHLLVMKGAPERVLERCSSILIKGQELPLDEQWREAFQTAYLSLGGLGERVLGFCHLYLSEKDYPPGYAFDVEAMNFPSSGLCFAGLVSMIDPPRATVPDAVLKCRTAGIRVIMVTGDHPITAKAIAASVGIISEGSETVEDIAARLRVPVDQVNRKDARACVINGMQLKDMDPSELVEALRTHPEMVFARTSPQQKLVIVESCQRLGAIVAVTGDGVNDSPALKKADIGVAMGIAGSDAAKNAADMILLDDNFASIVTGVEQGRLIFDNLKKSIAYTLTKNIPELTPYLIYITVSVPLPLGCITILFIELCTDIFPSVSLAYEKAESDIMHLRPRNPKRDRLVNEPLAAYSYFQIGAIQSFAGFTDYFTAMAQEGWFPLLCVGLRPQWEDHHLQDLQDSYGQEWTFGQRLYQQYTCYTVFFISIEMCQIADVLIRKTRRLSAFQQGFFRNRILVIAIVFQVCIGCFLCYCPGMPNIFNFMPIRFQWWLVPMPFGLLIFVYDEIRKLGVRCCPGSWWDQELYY
T1 sequence (P18597 whole entry partner): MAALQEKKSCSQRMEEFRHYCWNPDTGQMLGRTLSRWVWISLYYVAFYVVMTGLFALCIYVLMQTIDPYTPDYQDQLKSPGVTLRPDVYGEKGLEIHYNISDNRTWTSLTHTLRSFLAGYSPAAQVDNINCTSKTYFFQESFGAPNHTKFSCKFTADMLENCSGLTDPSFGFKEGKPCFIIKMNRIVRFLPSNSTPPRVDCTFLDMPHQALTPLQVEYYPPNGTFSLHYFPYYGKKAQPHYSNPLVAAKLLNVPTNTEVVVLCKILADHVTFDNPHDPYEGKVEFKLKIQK
The series can be described thus: Inhibition of H^+ /K^+ ATPase (rabbit gastric mucosa vesicles). The format is biochemical. Here is the method: 1. Inhibition of H^+ /K^+ ATPase Inhibition of H^+ /K^+ ATPase, a proton carrying enzyme, was measured by following the procedure of Saccomani et al. [Biochim. Biophy. Acta., 465, 311-330 (1977)]. Thus, a homogenate of the gastric mucose membrane of rabbit was used to prepare vesicles containing H^+ /K^+ ATPase by employing differential centrifugation and discontinuous density gradient centrifugation in Ficoll. […] Omeprazole was used as a control. A solution containing 2 mM of magnesium chloride, 40 mM of imidazole buffer (pH 7.4), 10 mM of potassium chloride and […] of ATP was added to the mixture. The resulting mixture was incubated at 37° C. for 15 minutes and the reaction was terminated by adding 1 ml of ice-cold 22% solution of trichloroacetic acid. Enzyme activity was calculated by measuring the separated inorganic phosphate by following the method of Fiske and Subbarow [J. Biol. Chem., 66, 375-440 (1925)].

Series [2] has as its system gastric secretion. The series can be described thus: Inhibition of gastric secretion (Shay ligation). The format is in vivo, male Sprague-Dawley rats. The settings on record: 4 hours, pylorus-ligated rats; for Gastric juice Secretion Inhibition (% at 12.5 mg/kg): 12.5 mg/kg into duodenum; for ED50: Rattus norvegicus, into duodenum, read-out: Gastric juice Secretion Inhibition (ED50). On the procedure:
2. Inhibition of Gastric Secretion
Inhibition of gastric secretion was measured by following the procedure of Shay ligation (Gastroenterology, 1954, 26, 903). Thus, male Sprague-Dawleyrats weighing 180-200 g were starved for 24 hours and their pylorus were ligated. Then, the inventive compounds shown in Table 2 or omeprazole as a positive control was administered into duodenum. Four hours later, the stomach was removed, and the acidity and amount of gastric juice were measured. By comparing the measured values with the acidity and amount of the gastric juice of the stomach of the reference group to which no test compound was administered, the inhibition of gastric secretion was calculated.

Series [3] concerns ethanol-induced lesions. Put plainly: Inhibition of ethanol-induced lesions. The format is in vivo, male Sprague-Dawley rats. The settings on record: Rattus norvegicus; oral, 30 min before absolute ethanol (5 ml/kg); read-out: Anti-ulcer activity (ED50), Ethanol. Here is the method:
1) Inhibition of ethanol-induced lesions Inhibitory activity of the inventive compound on the ethanol-induced lesions was measured by using male Sprague-Dawley rats weighing 180-200 g. Thus, rats were starved for 24 hours, and the inventive compounds shown in Table 3 or omeprazole as a positive control was orally administered. Thirty minutes later, absolute ethanol (5 ml/kg) was orally administered. 1.5 hours later, the stomach was removed, and the degree of the wound of the stomach was measured.

Series [4] has as its system indomethacin-induced lesions. Put plainly: Inhibition of indomethacin-induced lesions. The format is in vivo, male Sprague-Dawley rats. The settings on record: Rattus norvegicus; oral, before indomethacin 35 mg/kg s.c.; read-out: Anti-ulcer activity (ED50), Indomethacin. Here is the method:
3) Inhibition of indomethacin-induced lesions Inhibitory activities of the inventive compounds on the indomethacin-induced lesions were measured by using male Sprague-Dawley rats. Thus, rats were starved for 48 hours and prohibited from being supplied with water for 2 hours, and 35 mg/kg of indomethacin (Sigma Co.) as a causative of gastric lesions was subcutaneously administered. Before indomethacin treatment, the inventive compounds shown in Table 3 or omeprazole as a positive control was orally administered, and the inhibitions of lesions by the action of the test compounds were observed.

Series [5] has as its system stress-induced ulcer. The series can be described thus: Inhibition of stress-induced ulcer. Conditions: Rattus norvegicus; oral, water immersion stress; read-out: Anti-ulcer activity (ED50), Stress. The format is in vivo, male Sprague-Dawley rats. On the procedure:
4) Inhibition of stress-induced ulcer Inhibitory activity of the inventive compound on the stress-induced ulcer was evaluated by using male Spraque-Dawley rats. Thus, rats were starved for 24 hours prior to carrying out the experiment. Stress is an important factor for causing gastric ulcer, and was applied to rats by immersing them in water. Then, the inventive compounds shown in Table 3 or omeprazole as a control was orally administered, and the inhibitions of ulcer by the action of the test compounds were observed.

The subject of series [6] is mepirizole-induced ulcer. The series can be described thus: Inhibition of mepirizole-induced ulcer. The format is in vivo, male Sprague-Dawley rats. The settings on record: Rattus norvegicus; oral, 30 min before mepirizole (250 mg/kg); duodenum; read-out: Anti-ulcer activity (ED50), Mepirizole. Here is the method: 2) Inhibition of mepirizole-induced ulcer Inhibitory activity of the inventive compound on the mepirizole-induced ulcer was measured by using male Spraque-Dawley rats weighing 200-230 g. Thus, rats were not starved, and the inventive compounds shown in Table 3 or omeprazole as a positive control was orally administered. Thirty minutes later, mepirizole suspended in 1% CMC (250 mg/kg) was orally administered. […], the duodena were removed. The degree of the ulcer thereof was measured.

Series [7] relates to ICR mice. Put plainly: Acute toxicity (oral, 14 days). The format is in vivo. Conditions: 6 animals. On the procedure:
(§1) A median lethal dose (LD50) an index of acute toxicity was measured and is Table 4

Series [8] can be described thus: Acute toxicity (oral, 14 days). The format is in vivo. The settings on record: mouse, in vivo, po; for mortality at 336 h: read-out: Lethality (%); for LD50 at 336 h: 14 days. On the procedure: as §1
Series [9] concerns acetic acid-induced ulcer. Put plainly: Inhibition of acetic acid-induced ulcer. The format is in vivo, male Sprague-Dawley rats. Conditions: oral, 10 days. Here is the method:
5) Inhibition of acetic acid-induced ulcer Inhibitory activity of the inventive compound on the acetic acid-induced ulcer was evaluated by using male Sprague-Dawley rats. Thus, rats were starved for 5 hours prior to carrying out the experiment. 20 Microliter of 30% acetic acid was injected into the submucosal layer of the stomach using a microsyringe to induce a circular ulcer on the stomach. […] The percentages of the healing of the ulcer were calculated by comparing them with that of reference group.

Setting [10] is: preincubation 30 min, 37° C., pH 7.4.

`CCOC(=O)c1cnc2c(OC)nccc2c1Nc1ccc(F)cc1` [Example 11]: the IC50 in [1] (setting [10]) worked out at 31.6 µM.
Regarding `CCCCc1ccc(Nc2c(C(=O)OCC)cnc3c(OC)nccc23)cc1` [Example 13], the midpoint of inhibition in [1] (setting [10]), the IC50, lay at 25.1 µM. The “Gastric juice Secretion Inhibition (% at 12.5 mg/kg)” value in series [2] amounted to 42.1%.
As to `CCOC(=O)c1cnc2c(OC)nccc2c1N[C@@H](C)c1ccccc1` [Example 15], the median effective dose (ED50) was 12.8 mg/kg in series [3], 2.1 mg/kg in [4] and 30 mg/kg in series [2].
Turning to `CCCC(=O)c1cnc2c(OC)nccc2c1N[C@H](C)c1ccccc1` [Example 21], the ED50 in [3] was found to be 11.2 mg/kg; in series [5], 13 mg/kg; in series [6], 64.1 mg/kg; in series [4], 2.1 mg/kg; in series [2], 11.7 mg/kg. Also, the “No. of Death” value in series [7] (female, 40 mg/kg oral) was determined as 0; in series [7] (female, 200 mg/kg oral), 0; in series [7] (female, 1000 mg/kg oral), 1; in series [7] (female, 5000 mg/kg oral) it was 6; in series [7] (male, 40 mg/kg oral) it was 0; in series [7] (male, 200 mg/kg oral) it was 0. Besides, the “No. of Death” value in series [7] (male, 1000 mg/kg oral) worked out at 0; in [7] (male, 5000 mg/kg oral) it was 6. Further, the mortality at 336 h stood at 0% in [8] (40 mg/kg, female, 40 mg/kg oral); 0% in series [8] (40 mg/kg, male, 40 mg/kg oral); 0% in [8] (200 mg/kg, female, 200 mg/kg oral); 0% in [8] (200 mg/kg, male, 200 mg/kg oral); 17% in series [8] (1000 mg/kg, female, 1000 mg/kg oral); 0% in [8] (1000 mg/kg, male, 1000 mg/kg oral). For the same compound, the mortality at 336 h in [8] (5000 mg/kg, female, 5000 mg/kg oral) turned out to be 100%; in [8] (5000 mg/kg, male, 5000 mg/kg oral), 100%. The 50% lethal dose (LD50) at 336 h was 1130 mg/kg in series [8] (female) and 2340 mg/kg in series [8] (male). Also, in series [1] (setting [10]), the IC50 stood at 45.7 µM. Also, the “Acetic acid: Percentage of healing in 30 mg/kg” value in series [9] is on record as 22.0%.
Take `CCCC(=O)c1cnc2c(OC)nccc2c1NCCCCc1ccccc1` [Example 29]: the half-maximal inhibitory concentration (IC50) in series [1] (setting [10]) worked out at 26.9 µM.
On the same count and under the same terms, the value for `CCCC(=O)c1cnc2c(OC)nccc2c1Nc1ccc2c(c1)CCC2` [Example 31] was 14.9 µM.
Still for that read-out and setting: to `CCCC(=O)c1cnc2c(OC)nccc2c1NC1CCCc2ccccc21` (stereo not drawn) [Example 32] belongs 75 µM.
`CCCC(=O)c1cnc2c(OCC)nccc2c1Nc1ccccc1SC` [Example 34]: the ED50 in series [3] worked out at 30.6 mg/kg; in series [4], 4.9 mg/kg; in series [2] it was 30 mg/kg. Besides, the IC50 in [1] (setting [10]) came to 23.4 µM.
For the compound `CCCCc1ccc(Nc2c(C(=O)CCC)cnc3c(OCC)nccc23)cc1` [Example 35], in series [1] (setting [10]), half-maximal inhibition (IC50) was put at 20.5 µM.
Turning to `CCCC(=O)c1cnc2c(OCC)nccc2c1N[C@H](C)c1ccccc1` [Example 37], the 50% inhibitory concentration (IC50) in series [1] (setting [10]) stood at 28 µM. Further, in series [2], the ED50 worked out at 13.3 mg/kg.
Consider `CCCC(=O)c1cnc2c(OCC)nccc2c1NCCCCc1ccccc1` [Example 41], for which half-maximal inhibition in series [1] (setting [10]) (IC50) was put at 12.6 µM.
Regarding `CCCC(=O)c1cnc2c(OCC)nccc2c1NC1CCCc2ccccc21` (stereo not drawn) [Example 42], the IC50 in [1] (setting [10]) amounted to 14.7 µM.
In turn, `CCCC(=O)c1cnc2c(OC(C)C)nccc2c1Nc1ccccc1C` [Example 43, 3-Butyryl-8-isopropoxy-4-(2-methylphenylamino)-1,7-naphthyridine] came in with an IC50 in series [1] (setting [10]) of 18.2 µM.
As to `CCCC(=O)c1cnc2c(OC(C)C)nccc2c1Nc1ccccc1SC` [Example 44], in series [1] (setting [10]), the 50% inhibitory concentration (IC50) was found to be 11.4 µM.
On to `CCCC(=O)c1cnc2c(OC(C)C)nccc2c1Nc1ccccc1C(F)(F)F` [Example 45], for which the IC50 in series [1] (setting [10]) turned out to be 39.3 µM.
As to `CCOC(=O)c1cnc2c(N3CCOCC3)nccc2c1Nc1ccccc1OC` [Example 49], the “Gastric juice Secretion Inhibition (% at 12.5 mg/kg)” value in series [2] is 35.8%.
`CCOC(=O)c1cnc2c(N3CCOCC3)nccc2c1Nc1cccc(C(F)(F)F)c1` [Example 55]: the IC50 in series [1] (setting [10]) was determined as 16.8 µM.
`COc1ccc2[nH]c([S+]([O-])Cc3ncc(C)c(OC)c3C)nc2c1` (stereo not drawn) [Omeprazole, reference compound]: the median effective dose (ED50) amounted to 17.5 mg/kg in series [3], 4.4 mg/kg in [5], 2.8 mg/kg in [6] and 1.2 mg/kg in series [4]. For the same compound, the IC50 in [1] (control) is 57.5 µM. Besides, the “Acetic acid: Percentage of healing in 30 mg/kg” value in series [9] is recorded as 27.1%.
